Experimental data from patent US20110028719A1, “SCREENING METHODS FOR AMYLOID BETA MODULATORS” (priority 2006, published 2011).
Where two headings read alike, the source gives them in different places.

Target: immobilized Aβ fibrils (Homo sapiens, UniProt P05067)
Assay: FAC-MS assay of free Aβ monomer (indicator) binding to immobilized Aβ fibrils in the presence of test compounds
[1] = FAC-MS screen, shift of free Aβ monomer breakthrough on immobilized Aβ fibrils in presence of compound, scale not given

Chain of immobilized Aβ fibrils (P05067 672-713 limits assumed): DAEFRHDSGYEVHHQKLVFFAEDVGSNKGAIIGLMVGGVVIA

Structure (SMILES)	Aβ Shift [1]	also measured
Cc1ccc[n+](CC(=O)OC2CC(C)CCC2C(C)C)c1 (centres unmarked)	1	–
CC1C2CC3(C)CC(C(=O)O)(C2)CC1(C)C3 (centres unmarked)	1	–
CC1C(C(=O)Nc2ccccc2)CCCC1(C)C(=O)O (centres unmarked)	1	–
Cc1cc[n+](CC(=O)OC2CC(C)CCC2C(C)C)cc1 (centres unmarked)	1	–
CC1CCC(C(C)C)C(OC(=O)C[n+]2ccccc2)C1 (centres unmarked)	1	–
CC1CCC(C(C)C)C(OC(=O)CN2CCOCC2)C1 (centres unmarked)	1	–
CCCNC(=O)C12CC3(C)CC(C)(CC(C)(C3)C1)C2	1	–
CC(C)NC(=O)C12CC3(C)CC(C)(CC(C)(C3)C1)C2	1	–
CC1CC(NC(=O)c2nc[nH]n2)CC(C)(C)C1 (centres unmarked)	1	–
CC12CC3CC(C)(C1)CC(C(=O)N1CCOCC1)(C3)C2	1	–
COC(=O)C12CCC(C)(C(O)C1)C2(C)C (centres unmarked)	1	–
CC1CCC(COC(=O)CN2CCOCC2)C(C)C1 (centres unmarked)	1	–
CC12CC3(C)CC(C)(C1)CC(NC(=O)NC(C)(C)C)(C2)C3	1	–
CC1CCC(C(C)C)C(OC(=O)c2ccccc2N)C1 (centres unmarked)	–	Aβ Shift: 1
CC12CC3(C)CC(C)(C1)CC(NC(=O)N1CCCC1)(C2)C3	1	–
COCCNC(=O)NC12CC3(C)CC(C)(CC(C)(C3)C1)C2	1	–
CNC(=O)C12CC3(C)CC(C)(CC(C)(C3)C1)C2	1	–
COC(=O)CNC(=O)C12CC3(C)CC(C)(CC(C)(C3)C1)C2	1	–
CC1(C(=O)O)CC(C)(C(=O)O)CC(C)(C(=O)O)C1 (centres unmarked)	1	–
CC1CCN(C(=O)C23CC4CC(C)(CC(C)(C4)C2)C3)CC1	1	–
CC12CC3CC(C)(C1)CC(C(=O)NC1=NCCS1)(C3)C2	1	–
CC12CC3(C)CC(C)(C1)CC(C(=O)NCC(=O)O)(C2)C3	1	–
CC1CCC(N(CCCN)Cc2ccco2)CC1C (centres unmarked)	1	–
OCC1CC(Cl)CC(Cl)C1O (centres unmarked)	0	–

Structure (SMILES)	Aβ Shift [1]	also measured
O=C1OC2C3CC([C@@H]2I)[C@@H](CO)C13 (some centres unmarked)	0	–
NC12C3C4C5C1C2C(Br)(C43)C51OCCO1 (centres unmarked)	0	–
CC(O)C12C3C4C5C1C2C(Br)(C43)C51OCCO1 (centres unmarked)	0	–
O=S(=O)(c1ccccc1)C1C2CC3C(C2Cl)C31 (centres unmarked)	0	–
O=C(O)C1C2C(=O)OC3C(Cl)C1C1(CC1)C32 (centres unmarked)	0	–
BrC1CC2OC2CC1Br (centres unmarked)	0	–
COc1ccc(C2(O)C(C)CCCC2C)cc1 (centres unmarked)	0	–
CC1CCCC(NC(=O)C2CCCCC2C(=O)O)C1C (centres unmarked)	0	–
CC1CCCC(NC(=O)CCC2CCCCC2)C1C (centres unmarked)	0	–
CCCCCCCCCC(=O)NC1CCCC(C)C1C (centres unmarked)	0	–
CC1CCCC(NC(=O)NC2CCCCC2)C1C (centres unmarked)	0	–
CC1CCCC(NC(=O)c2nc[nH]n2)C1C (centres unmarked)	0	–
CC1(C)CC(=O)C2=C(C1)CC1(C)CC(C)(C)CC2(O)C1 (centres unmarked)	0	–
CC1(C)CC2(C)CC3=C([C@H](CO)C(C)(C)C3)C(CO)(C1)C2 (some centres unmarked)	0	–
CC1(C)CC(=O)C2=C(C1)CC1(C)CC(C)(C)CC2(C#N)C1 (centres unmarked)	0	–
CC1CC2=C(/C(=N/O)C1)C1(O)CC(C)CC(C)(C2)C1 (centres unmarked)	0	–
CC1(C)CC2(C)CC(O)(C1)C13CCC(C)(C)CC1(C2)O3 (centres unmarked)	0	–
CC1CC(C(=O)O)CC(C(=O)O)C1 (centres unmarked)	0	–
CC(C)(C)C1CC(C(=O)O)CC(C(=O)O)C1 (centres unmarked)	0	–
CC1CCN(CC(O)COC2CC(C)CC(C)(C)C2)CC1 (centres unmarked)	0	–
CC12CC3(C)CC(C)(C1)CC(C1(C)CC(=O)O1)(C2)C3 (centres unmarked)	0	–
CC(=O)NC12CC3(C)CC(C)(CC(C)(C3)C1)C2	0	–
CC1CC(NC(=O)c2cccs2)CC(C)(C)C1 (centres unmarked)	0	–
CC12CC3(C)CC(CC(N)=O)(C1)CC(C(N)=O)(C2)C3	0	–

Structure (SMILES)	Aβ Shift [1]	also measured
CC12CC3CC(C)(C1)CC(O)(C3)C2	0	–
CC(N)C12CC3CC(C)(CC(C)(C3)C1)C2 (centres unmarked)	0	–
CC1CC(NC(=O)c2cccc3ccccc23)CC(C)(C)C1 (centres unmarked)	0	–
CC1CC(OC(=O)/C=C/c2ccccc2)CC(C(C)C)C1 (centres unmarked)	0	–
CC1CC(NC(=O)C2CCC2)CC(C)(C)C1 (centres unmarked)	0	–
CCCCCCCCC(=O)NC1CC(C)CC(C)(C)C1 (centres unmarked)	0	–
CC1CC(NC(=O)C2(C)CC2(Cl)Cl)CC(C)(C)C1 (centres unmarked)	0	–
COc1cccc(C(=O)OC2CC(C)CC(C)C2)c1 (centres unmarked)	0	–
COc1cccc(OC)c1C(=O)OC1CC(C)CC(C)C1 (centres unmarked)	0	–
CC1CC(C)CC(OC(=O)c2ccco2)C1 (centres unmarked)	0	–
CC1CCC(O[C@H]2C=CC(=O)O2)C(C(C)C)C1 (some centres unmarked)	0	–
CC1CC(C)(C(=O)O)CCC1(C)C (centres unmarked)	0	–
Cc1cccc(NC(=O)C23CCC(C)(C(O)C2)C3(C)C)n1 (centres unmarked)	0	–
CC1CCC(C(C)C)C(OC(=O)C2C3CCCCC32)C1 (centres unmarked)	0	–
CC(C)C(=O)O[C@@H]1[C@@H](OC(=O)C(C)C)[C@H](OC(=O)C(C)C)[C@H](O)[C@H](OC(=O)C(C)C)[C@H]1OC(=O)C(C)C	4	–
CC(C)(C)C(=O)O[C@@H]1[C@@H](OC(=O)C(C)(C)C)[C@H](OC(=O)C(C)(C)C)[C@H](O)[C@H](OC(=O)C(C)(C)C)[C@H]1OC(=O)C(C)(C)C	5	–
CC(=O)O[C@@H]1[C@@H](OC(=O)C(C)(C)C)[C@H](OC(=O)C(C)(C)C)[C@H](OC(C)=O)[C@H](OC(=O)C(C)(C)C)[C@H]1OC(=O)C(C)(C)C	4	–
CCC(=O)O[C@H]1[C@H](OC(=O)CC)[C@@H](OC(=O)CC)[C@H](OC(=O)CC)[C@@H](OC(=O)CC)[C@H]1OC(=O)CC	4	–
CC(C)C(=O)O[C@H]1[C@H](OC(=O)C(C)C)[C@@H](OC(=O)C(C)C)[C@H](OC(=O)C(C)C)[C@@H](OC(=O)C(C)C)[C@H]1OC(=O)C(C)C	5	–
CC(C)(C)C(=O)O[C@H]1[C@H](OC(=O)C(C)(C)C)[C@@H](OC(=O)C(C)(C)C)[C@H](OC(=O)C(C)(C)C)[C@@H](OC(=O)C(C)(C)C)[C@H]1OC(=O)C(C)(C)C	4	–
CC(C)CC(=O)O[C@@H]1[C@@H](OC(=O)CC(C)C)[C@H](OC(=O)CC(C)C)[C@H](O)[C@H](OC(=O)CC(C)C)[C@H]1OC(=O)CC(C)C	2	–
O=C(O[C@@H]1[C@@H](OC(=O)c2ccccc2)[C@H](OC(=O)c2ccccc2)[C@H](O)[C@H](OC(=O)c2ccccc2)[C@H]1OC(=O)c1ccccc1)c1ccccc1	2	–
Oc1c(I)cc(Cl)c2cccnc12	–	Aβ Shift (FAC-MS % shift of free Aβ monomer breakthrough on immobilized Aβ fibrils in presence of the compound (screen, Table 2)): 2
